# Experiments:
# PI3Ka = PI3Ka (Homo sapiens (Human), UniProt P42336); assay: Z'-LYTE / Adapta kinase assay, PI3Ka; type: biochemical; conditions: for inhibition at 0.1 µM: read-out: PI3Ka % Inh. @ 100 nM
# Summary of the method: (§1)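 Z'-LYTE FRET-peptide phosphorylation read as coumarin/fluorescein emission ratio (400 nm excitation); Adapta immunoassay detects ADP formation. 60-min kinase reaction, 60-min development, room temperature.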
# EGFR = EGFR (Homo sapiens (Human), UniProt P00533); assay: Z'-LYTE / Adapta kinase assay, EGFR; type: biochemical; conditions: for inhibition at 0.1 µM: read-out: EGFR % Inh. @ 100 nM
# EGFR, sequence (P00533 25-1210): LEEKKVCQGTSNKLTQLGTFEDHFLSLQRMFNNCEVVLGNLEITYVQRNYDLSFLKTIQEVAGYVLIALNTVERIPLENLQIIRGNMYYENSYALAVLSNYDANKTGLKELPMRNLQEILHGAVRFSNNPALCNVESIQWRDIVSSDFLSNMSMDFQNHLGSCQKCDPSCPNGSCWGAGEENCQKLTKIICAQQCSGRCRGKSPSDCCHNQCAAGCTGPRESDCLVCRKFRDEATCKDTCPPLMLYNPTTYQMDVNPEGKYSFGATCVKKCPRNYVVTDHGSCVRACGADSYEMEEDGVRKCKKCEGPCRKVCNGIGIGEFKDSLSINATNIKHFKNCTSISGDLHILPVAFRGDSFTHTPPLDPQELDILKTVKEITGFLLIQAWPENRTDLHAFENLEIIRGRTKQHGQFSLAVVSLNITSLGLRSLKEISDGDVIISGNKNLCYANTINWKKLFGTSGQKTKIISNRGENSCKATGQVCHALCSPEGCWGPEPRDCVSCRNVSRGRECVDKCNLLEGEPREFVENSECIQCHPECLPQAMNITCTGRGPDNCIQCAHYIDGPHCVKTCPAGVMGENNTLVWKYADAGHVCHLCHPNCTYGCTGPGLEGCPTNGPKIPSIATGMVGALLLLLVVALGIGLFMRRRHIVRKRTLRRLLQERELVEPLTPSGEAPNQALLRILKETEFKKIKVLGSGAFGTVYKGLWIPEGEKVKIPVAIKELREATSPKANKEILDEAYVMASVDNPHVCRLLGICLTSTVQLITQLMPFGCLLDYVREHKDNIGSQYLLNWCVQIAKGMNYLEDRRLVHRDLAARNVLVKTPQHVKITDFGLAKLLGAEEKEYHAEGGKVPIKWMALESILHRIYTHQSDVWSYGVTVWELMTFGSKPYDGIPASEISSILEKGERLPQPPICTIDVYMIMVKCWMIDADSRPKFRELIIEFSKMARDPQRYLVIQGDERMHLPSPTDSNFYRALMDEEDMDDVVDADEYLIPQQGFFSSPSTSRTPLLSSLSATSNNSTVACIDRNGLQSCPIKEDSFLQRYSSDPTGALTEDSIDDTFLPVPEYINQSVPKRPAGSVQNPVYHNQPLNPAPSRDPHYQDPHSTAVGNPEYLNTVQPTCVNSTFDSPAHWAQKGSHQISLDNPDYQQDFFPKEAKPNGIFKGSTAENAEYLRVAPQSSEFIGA
# Summary of the method: as §1
# DNA-PK = DNA-PK (Homo sapiens (Human), UniProt P78527); assay: Z'-LYTE / Adapta kinase assay, DNA-PK; type: biochemical; conditions: for inhibition at 0.1 µM: read-out: DNA-PK % Inh. @ 100 nM
# Summary of the method: as §1
# [1] = Metabolic stability in mouse liver microsomes; type: in vitro ADME
# Method: Working solution: 5 μL of compound and control stock solution (10 mM in dimethyl sulfoxide (DMSO)) were diluted with 495 μL of acetonitrile (ACN) (intermediate solution concentration: 100 μM, 99% ACN)
# NADPH Cofactor Preparation: NADPH powder: β-Nicotinamide adenine dinucleotide phosphate reduced form, tetrasodium salt; NADPH·4Na. The appropriate amount of NADPH powder was weighed and diluted into a 10 mM MgCl2 solution (working solution concentration: 10 unit/mL; final concentration in reaction system: 1 unit/mL)
# Liver Microsomes Preparation: The appropriate concentrations of microsome working solutions were prepared in 100 mM potassium phosphate buffer. Cold (4° C.) acetonitrile (ACN) containing 200 ng/mL tolbutamide and 200 ng/mL labetalol as internal standards (1S) was used as the stop solution
# Assay Procedure: Pre-warm empty ‘Incubation’ plates T60 and NCF60 for 10 minutes. Dilute liver microsomes to 0.56 mg/mL in 100 mM phosphate buffer. Transfer 445 μL microsome working solutions (0.56 mg/mL) into pre-warmed ‘Incubation’ plates T60 and NCF60, Then pre-incubate ‘Incubation’ plates T60 and NCF60 for 10 min at 37° C. with constant shaking. Transfer 54 μL liver microsomes to blank plate, then add 6 μL NAPDH cofactor to blank plate, and then add 180 μL quenching solution to blank plate. Add 5 μL compound working solution (100 μM) into ‘incubation’ plates (T60 and NCF60) containing microsomes and mix 3 times thoroughly.
# For the NCF60 plate, add 50 μL of buffer and mix 3 times thoroughly. Start timing; plate will be incubated at 37° C. for 60 min while shaking. In ‘Quenching’ plate T0, add 180 μL quenching solution and 6 μL NAPDH cofactor. Ensure the plate is chilled to prevent evaporation. For the T60 plate, mix 3 times thoroughly, and immediately remove 54 μL mixture for the 0-min time point to ‘Quenching’ plate. Then add 44 μL NAPDH cofactor to incubation plate (T60). Start timing; plate will be incubated at 37° C. for 60 min while shaking. At 5, 10, 20, 30, and 60 min, add 180 μL quenching solution to ‘Quenching’ plates, mix once, and serially transfer 60 μL sample from T60 plate per time point to ‘Quenching’ plates. For NCF60: mix once, and transfer 60 μL sample from the NCF60 incubation to ‘Quenching’ plate containing quenching solution at the 60-min time point. All sampling plates are shaken for 10 min, then centrifuged at 4000 rpm for 20 minutes at 4° C. Transfer 80 μL supernatant into 240 μL HPLC water, and mix by plate shaker for 10 min. Each bioanalysis plate was sealed and shaken for 10 minutes prior to LC-MS/MS analysis.
# The equation of first order kinetics was used to calculate T½ and CLint(mic) (μL/min/mg). Equation of first order kinetics: […]
# The biological stability of the compounds of the disclosure can be measured by determining its ½ life in the presence microsomes. Presented in Table 5, is the ½ life of selected compounds of the disclosure in the presence of human liver microsomes (HLM) or mouse liver microsomes (MLM) as described above. In Table 5, ½ life is presented as “++++” (value is greater than 60 minutes), “+++” (value is greater than 30 minutes and less than or equal to 60 minutes), “++” (value is greater than 15 minutes and less than or equal to 30 minutes) and “+” (value is 15 minutes or less).
# PI3Ka, sequence (P42336 whole entry): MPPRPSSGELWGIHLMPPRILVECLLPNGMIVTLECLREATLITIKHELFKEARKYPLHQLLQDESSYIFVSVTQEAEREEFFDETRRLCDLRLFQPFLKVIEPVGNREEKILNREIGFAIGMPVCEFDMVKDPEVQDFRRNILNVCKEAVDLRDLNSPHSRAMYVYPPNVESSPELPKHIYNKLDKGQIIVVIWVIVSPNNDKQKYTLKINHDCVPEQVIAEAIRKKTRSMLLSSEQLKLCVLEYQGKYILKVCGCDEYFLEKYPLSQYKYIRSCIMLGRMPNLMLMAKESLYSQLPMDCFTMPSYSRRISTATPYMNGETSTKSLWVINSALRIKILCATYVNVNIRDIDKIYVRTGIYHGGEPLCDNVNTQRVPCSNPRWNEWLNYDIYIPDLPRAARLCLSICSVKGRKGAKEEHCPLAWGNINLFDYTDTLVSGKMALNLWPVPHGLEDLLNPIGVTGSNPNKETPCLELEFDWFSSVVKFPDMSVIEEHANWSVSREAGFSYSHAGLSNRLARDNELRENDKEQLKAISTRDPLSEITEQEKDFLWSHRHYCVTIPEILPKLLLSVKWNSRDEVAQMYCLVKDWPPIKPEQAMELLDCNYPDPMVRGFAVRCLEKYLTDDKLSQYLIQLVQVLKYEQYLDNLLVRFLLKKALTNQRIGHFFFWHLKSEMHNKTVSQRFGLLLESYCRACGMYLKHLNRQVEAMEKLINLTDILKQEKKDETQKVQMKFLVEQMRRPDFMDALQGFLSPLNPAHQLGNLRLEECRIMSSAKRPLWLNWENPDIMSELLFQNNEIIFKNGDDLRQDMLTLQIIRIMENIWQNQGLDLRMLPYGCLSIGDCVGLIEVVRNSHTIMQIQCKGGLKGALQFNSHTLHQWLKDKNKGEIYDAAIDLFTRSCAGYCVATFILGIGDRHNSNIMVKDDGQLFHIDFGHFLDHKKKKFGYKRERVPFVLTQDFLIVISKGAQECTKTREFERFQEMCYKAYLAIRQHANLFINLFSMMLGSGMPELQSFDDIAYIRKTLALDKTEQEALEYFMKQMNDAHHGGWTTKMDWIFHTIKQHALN
# PI3Ka, sequence (P27986 whole entry partner): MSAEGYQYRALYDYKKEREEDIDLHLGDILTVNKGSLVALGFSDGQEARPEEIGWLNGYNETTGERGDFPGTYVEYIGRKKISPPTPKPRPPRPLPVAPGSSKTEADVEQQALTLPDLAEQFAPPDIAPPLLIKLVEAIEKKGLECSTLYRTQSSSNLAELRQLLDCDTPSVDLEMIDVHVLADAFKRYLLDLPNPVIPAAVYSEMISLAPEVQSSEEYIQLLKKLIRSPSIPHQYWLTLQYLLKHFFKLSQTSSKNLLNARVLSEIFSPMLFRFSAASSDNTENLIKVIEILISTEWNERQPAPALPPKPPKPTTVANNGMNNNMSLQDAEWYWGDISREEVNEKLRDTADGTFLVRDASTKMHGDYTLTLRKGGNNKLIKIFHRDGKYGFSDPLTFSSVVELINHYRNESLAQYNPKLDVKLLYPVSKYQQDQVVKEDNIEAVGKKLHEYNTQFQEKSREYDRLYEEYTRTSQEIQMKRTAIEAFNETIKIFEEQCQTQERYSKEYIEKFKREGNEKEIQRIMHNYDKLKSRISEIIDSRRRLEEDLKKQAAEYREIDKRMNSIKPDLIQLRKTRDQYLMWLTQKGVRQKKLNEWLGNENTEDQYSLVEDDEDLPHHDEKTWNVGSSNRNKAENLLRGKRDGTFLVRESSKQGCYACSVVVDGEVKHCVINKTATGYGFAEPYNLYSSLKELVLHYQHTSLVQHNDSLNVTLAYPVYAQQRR
SMILES,PI3Ka IC50 (nM) (PI3Ka),inhibition at 0.1 µM (PI3Ka),IC50 (EGFR),inhibition at 0.1 µM (EGFR),IC50 (DNA-PK),inhibition at 0.1 µM (DNA-PK),½ life minutes (MLM) [1],PI3Ka % Inh. @ 100 nM (PI3Ka; 100 nM),EGFR % Inh. @ 100 nM (EGFR; 100 nM),DNA-PK % Inh. @ 100 nM (DNA-PK; 100 nM),IC50 (PI3Ka)
"CC(Nc1c(C#N)cnc2ccc(-c3cnc4[nH]ncc4c3)cc12)c1ccccc1 (stereo not drawn) [Compound 54, 4-(1-phenylethylamino)-6-(1H-pyrazolo[3,4-b]pyridin-5-yl)quinoline-3-carbonitrile]",+ (value is greater than 200 nM),10 to 80%,2 to 20 nM,> 90%,2 to 20 nM,80 to 90%,+ (value is 15 minutes or less),,,,
"C[C@@H](Nc1c(C#N)cnc2ccc(-c3cnc(N)nc3)cc12)c1ccccc1 [Compound 53R, (R)-6-(2-aminopyrimidin-5-yl)-4-((1-phenylethyl)amino)quinoline-3-carbonitrile]",+ (value is greater than 200 nM),10 to 80%,2 to 20 nM,> 90%,20 to 200 nM,10 to 80%,+++ (value is greater than 30 minutes and less than or equal to 60 minutes),,,,
"CS(=O)(=O)Nc1cc(-c2ccc3ncnc(Nc4ccc(F)c(Cl)c4)c3c2)cnc1Cl [Comparative Compound 2, reference compound]",++++ (value is 2 nM or less),> 90%,2 to 20 nM,> 90%,< 2 nM,> 90%,++++ (value is greater than 60 minutes),,,,
"CC(Nc1c(C#N)cnc2ccc(-c3cnc(N)nc3)cc12)c1ccccc1 (stereo not drawn) [Compound 53, 6-(2-aminopyrimidin-5-yl)-4-(1-phenylethylamino) quinoline-3-carbonitrile]",+ (value is greater than 200 nM),10 to 80%,2 to 20 nM,80 to 90%,20 to 200 nM,10 to 80%,+++ (value is greater than 30 minutes and less than or equal to 60 minutes),,,,
"C[C@H](Nc1ncnc2ccc(-c3cnc(Cl)c(NS(C)(=O)=O)c3)cc12)c1ccccc1 [Compound 2S, N-(2-chloro-5-(4-((1S-phenylethyl)amino)quinazolin-6-yl)pyridin-3-yl)methanesulfonamide]",++++ (value is 2 nM or less),> 90%,> 200 nM,< 10%,< 2 nM,> 90%,++++ (value is greater than 60 minutes),,,,
"CS(=O)(=O)Nc1cncc(-c2ccc3ncnc(NCc4ccccc4)c3c2)c1 [Comparative Compound 3, reference compound]",++ (value is greater than 20 nM and less than or equal to 200 nM),,,,,,+ (value is 15 minutes or less),*** (value is greater than 80% and less than or equal to 90%),**** (value is greater than 90%),**** (value is greater than 90%),
"CS(=O)(=O)Nc1cc(-c2ccc3ncnc(NCc4ccccc4)c3c2)cnc1Cl [Comparative Compound 1, N-[5-[4-(benzylamino)quinazolin-6-yl]-2-chloro-3-pyridyl]methanesulfonamide, reference compound]",++++ (value is 2 nM or less),> 90%,20 to 200 nM,10 to 80%,< 2 nM,> 90%,++++ (value is greater than 60 minutes),,,,
"C[C@@H](Nc1ncnc2ccc(-c3cnc(Cl)c(NS(C)(=O)=O)c3)cc12)c1ccccc1 [Compound 2R, N-(2-chloro-5-(4-((1R-phenylethyl)amino)quinazolin-6-yl)pyridin-3-yl)methanesulfonamide]",,> 90%,2 to 20 nM,80 to 90%,2 to 20 nM,> 90%,++++ (value is greater than 60 minutes),,,,2 to 20 nM
"C[C@@H](Nc1ncnc2ccc(-c3cnc(Cl)c(NS(C)(=O)=O)c3)cc12)c1ccc(F)cc1 [Compound 111R, N-(2-chloro-5-(4-((1R-(4-fluorophenyl)ethyl)amino)quinazolin-6-yl)pyridin-3-yl)methanesulfonamide]",,> 90%,20 to 200 nM,10 to 80%,,80 to 90%,++++ (value is greater than 60 minutes),,,,2 to 20 nM

# From patent US11673876B2, “Substituted aminobenzyl heteroaryl compounds as EGFR and/or PI3K inhibitors” (Mekanistic Therapeutics LLC, priority 2020, dated 2023)
